From patent publication US20080207711A1, “Method for treating an ID2-related disorder” (priority 2007, published 2008) come the findings set out here.

SMILES strings stand for the structures.

The data set concerns Pkd2−/− mice. The experiment in a line: Treatment of pregnant female mice from a Pkd2+/- cross; newborn pups examined for kidney cysts, kidney size, edema and body size. In kind it is in vivo. On the procedure: FIG. 1. […] (a) wild-type and (b) Pkd2^−/− kidneys without rosiglitazone treatment. (c) Pkd2^+/− and (d) Pkd2^−/− kidneys with rosiglitazone treatment.
Rosiglitazone, which may inhibit Id2 activity, alleviates the effects of Pkd loss of function mutations. This was shown by treating pregnant female mice from a cross between Pkd2^+/− mice with 80 mg/kg diet/day ciglitazone or rosiglitazone for ten days prior to delivery. […] Similarly, Id2 knockout mice were small. […] In contrast, ciglitazone treatment appeared to have no effect on newborn Pkd2^−/− mice.

[1] abbreviates: mother treated 80 mg/kg diet/day for ten days prior to delivery.

As for `CC1(COc2ccc(CC3SC(=O)NC3=O)cc2)CCCCC1` (centres unmarked) [ciglitazone, 5-[4-[(1 methylcyclohexyl)methoxy]benzyl]thiazolidine-2,4-dione], under setting [1], the “effect on newborn Pkd2−/− mice” value is recorded as “no effect”.
Consider `CN(CCOc1ccc(CC2SC(=O)NC2=O)cc1)c1ccccn1` (centres unmarked) [rosiglitazone, 5-[4-[2-(N-methyl-N-(2-pyridyl)amino)ethoxy]benzyl]thiazolidine-2,4-dione], for which, under “FIG. 1, kidneys with vs without treatment”, the “cyst formation in Pkd2−/− kidneys” value was “inhibits cyst formation”. Moreover, under setting [1], the “body size of newborn pups” value is given as “small body size in six of newborn pups” and the “edema in Pkd2−/− pup” value is listed as “no edema”. Besides, the “kidney size and morphology of Pkd2−/− pup” value (mother treated 80 mg/kg diet/day for ten days prior to delivery, compared to Pkd2−/− littermates of untreated mothers) was “kidneys of normal size and morphology”.
